{"source": "patent US6605634B2", "about": "(Amgen, Inc., priority 1996, dated 2003)", "data": [{"system": "production of tumor necrosis factor (TNF) by monocytes activated with bacterial lipopolysaccharide (LPS)", "experiment": "Lipopolysaccharide-activated Monocyte TNF Production Assay", "assay_type": "cell-based", "details": "Homo sapiens, TNF in culture supernatants by ELISA, read-out: IC50 (concentration of test compounds causing a 50% reduction in TNF production)", "procedure": "Lipopolysaccharide-activated Monocyte TNF Production Assay\nTest compounds were evaluated in vitro for the ability to inhibit the production of tumor necrosis factor (TNF) by monocytes activated with bacterial lipopolysaccharide (LPS). Fresh residual source leukocytes (a byproduct of plateletpheresis) were obtained from the local blood bank and peripheral blood mononuclear cells (PBMCs) were isolated by density gradient centrifugation on Ficol-Paque Plus (Pharmacia). PBMCs were suspended at 2×10^6/ml in DMEM supplemented to contain 2% FCS (10 mM), 0.3 mg/ml glutamate, 100 U/ml penicillin G and […] streptomycin sulfate (complete media). Cells were plated into Falcon flatbottom 96 well culture plates (200 μl/well) and cultured overnight at 37° C. and 6% CO2. Nonadherent cells were removed by washing with 200 μl/well of fresh medium. Wells containing adherent cells (˜70% monocytes) were replenished with 100 μl of fresh medium.\nPreparation of Test Compound Stock Solutions\nTest compounds were dissolved in […]. Compound stock solutions were prepared to an initial concentration of […]. Stocks were diluted initially to 20-200 μM in complete media. Nine two-fold serial dilutions of each compound were then prepared in complete medium.\nTreatment of Cells with Test Compounds and Activation of TNF Production with Lipopolysaccharide\nOne hundred microliters of each test compound dilution were added to microtiter wells containing adherent monocytes and 100 μl complete medium. Monocytes were cultured with test compounds for 60 min at which time 25 μl of complete medium containing 30 ng/ml lipopolysaccharide from E. coli K532 were added to each well. Cells were cultured an additional 4 hrs. Culture supernatants were then removed and TNF present in the supernatants was quantified using an ELISA.\nFlat bottom 96 well Coming High Binding ELISA plates were coated overnight (4° C.) with 150 μL/well of 3 μg/ml murine anti-human TNFa MAb (R&D Systems #MAB210). Wells were then blocked 1 h at room temperature with 200 μL/well of CaCl2-free ELISA buffer supplemented to contain 20 mg/ml BSA (standard ELISA buffer: […], 150 mM NaCl, 2 mM CaCl2, 0.15 mM thimerosal, pH 7.4). Plates were washed and replenished with 100 μl of test supernatants (diluted 1:3) or standards. Standards consisted of eleven 1.5-fold serial dilutions from a stock of 1 ng/ml recombinant human TNF (R&D Systems). Plates were incubated at room temperature for 1 h on orbital shaker (300 rpm), washed and replenished with 100 μl/well of 0.5 jig/ml goat anti-human TNFa (R&D systems #AB-210-NA) biotinylated at a 4:1 ratio. Plates were incubate for 40 min, washed and replenished with 100 μl/well of alkaline phosphatase-conjugated streptavidin (Jackson ImmunoResearch #016-050-084) at 0.02 μg/ml. Plates were incubated 30 min, washed and replenished with 200 μl well of 1 mg/ml of p-nitrophenyl phosphate. After 30 min, plates were read at 405 nm on a Vmax plate reader.\nStandard curve data were fit to a second order polynomial and unknown TNF-a concentrations determined from their OD by solving this equation for concentration. TNF concentrations were then plotted Vs test compound concentration using a second order polynomial. This equation was then used to calculate the concentration of test compounds causing a 50% reduction in TNF production.", "units": {"IC50": "µM"}, "values": [{"smiles": "CNCC(=O)Nc1ccc2c(-c3ccncc3)c(-c3ccc(F)cc3)[nH]c2n1", "note": "[Compound 105, 6-(2′-N-methyl-amino-1′-oxo-ethylamino)-3-(4-pyridyl)-2-(4-fluorophenyl)-7-aza-indole]", "IC50": "< 1"}, {"smiles": "C[C@H](N)C(=O)Nc1ccc2c(-c3ccncc3)c(-c3ccc(F)cc3)[nH]c2n1", "note": "[Compound 123, 6-(1′-oxo-2′S-aminopropylamino)-3-(4-pyridyl)-2-(4-fluorophenyl)-7-aza-indole]", "IC50": "< 1"}, {"smiles": "CN[C@@H](CC(C)C)C(=O)Nc1ccc2c(-c3ccncc3)c(-c3ccc(F)cc3)[nH]c2n1", "note": "[Compound 129, 6-(1′-oxo-2′S-N-methyl-4-methyl-2-aminopentylamino)-3-(4-pyridyl)-2-(4-fluorophenyl)-7-aza-indole]", "IC50": "< 20"}, {"smiles": "Fc1ccc(-c2[nH]c3nccnc3c2-c2ccncc2)cc1", "note": "[Compound 99, 3-(4-pyridyl)-2-(4-fluorophenyl)-4,7-diaza-indole]", "IC50": "< 20"}, {"smiles": "Cn1c(-c2ccc(F)cc2)c(-c2ccncc2)c2ccc(NC(=O)CN)nc21", "note": "[Compound 158, 6(2′-amino-1′-oxo-ethylamino)-3-(4-pyridyl)-2-(4-fluorophenyl)-1-methyl-7-aza-indole]", "IC50": "< 20"}, {"smiles": "N[C@@H](C(=O)Nc1ccc2c(-c3ccncc3)c(-c3ccc(F)cc3)[nH]c2n1)c1ccccc1", "note": "[Compound 117, 6-(2′-phenyl-1′-oxo-2′R-aminoethylamino)-3-(4-pyridyl)-2-(4-fluorophenyl)-7-aza-indole]", "IC50": "< 1"}, {"smiles": "N[C@@H](CCC(=O)O)C(=O)Nc1ccc2c(-c3ccncc3)c(-c3ccc(F)cc3)[nH]c2n1", "note": "[Compound 83, 6-(4′-carboxy-1′-oxo-2′-aminobutylamino)-3-(4-pyridyl)-2-(4-fluorophenyl)-7-aza-indole]", "IC50": "< 20"}, {"smiles": "N[C@@H](Cc1cnc[nH]1)C(=O)Nc1ccc2c(-c3ccncc3)c(-c3ccc(F)cc3)[nH]c2n1", "note": "[Compound 113, 6-(L-histidinylamino)-3-(4-pyridyl)-2-(4-fluorophenyl)-7-aza-indole]", "IC50": "< 20"}, {"smiles": "O=C(Nc1ccc2c(-c3ccncc3)c(-c3ccc(F)cc3)[nH]c2n1)C1CCNCC1", "note": "[Compound 107, 6-(4′-isonipecotylamino)-3-(4-pyridyl)-2-(4-fluorophenyl)-7-aza-indole]", "IC50": "< 1"}, {"smiles": "N[C@@H](Cc1ccc(O)cc1)C(=O)Nc1ccc2c(-c3ccncc3)c(-c3ccc(F)cc3)[nH]c2n1", "note": "[Compound 89, 6-(3′-(4-hydroxyphenyl)-1′-oxo-2′-aminopropylamino)-3-(4-pyridyl)-2-(4-fluorophenyl)-7-aza-indole]", "IC50": "< 1"}, {"smiles": "NCCCC(=O)Nc1ccc2c(-c3ccncc3)c(-c3ccc(F)cc3)[nH]c2n1", "note": "[Compound 22, 6-(4′-amino-1′-oxo-butylamino)-3-(4-pyridyl)-2-(4-fluorophenyl)-7-aza-indole]", "IC50": "< 20"}, {"smiles": "O=S(=O)(Nc1ccc2c(-c3ccncc3)c(-c3ccc(F)cc3)[nH]c2n1)c1ccc(Cl)s1", "note": "[Compound 95, 6-(2′-(5-chlorothienyl)sulfonylamino)-3-(4-pyridyl)-2-(4-fluorophenyl)-7-aza-indole]", "IC50": "< 20"}, {"smiles": "CC(C)(C)OC(=O)N[C@@H](Cc1cccnc1)C(=O)Nc1ccc2c(-c3ccncc3)c(-c3ccc(F)cc3)[nH]c2n1", "note": "[Compound 110, 6-(3′-(3-pyridyl)-1′-oxo-2′S-t-butoxycarbonylaminopropylamino)-3-(4-pyridyl)-2-(4-fluorophenyl)-7-aza-indole]", "IC50": "< 20"}, {"smiles": "NCCC[C@H](N)C(=O)Nc1ccc2c(-c3ccncc3)c(-c3ccc(F)cc3)[nH]c2n1", "note": "[Compound 69, 6-(5′-amino-1′-oxo-2′-aminopentylamino)-3-(4-pyridyl)-2-(4-fluorophenyl)-7-aza-indole]", "IC50": "< 20"}, {"smiles": "CC(=O)Nc1ccc2c(-c3ccncc3)c(-c3ccc(F)cc3)[nH]c2n1", "note": "[Compound 94, 6-(1′-oxo-ethylamino)-3-(4-pyridyl)-2-(4-fluorophenyl)-7-aza-indole]", "IC50": "< 20"}, {"smiles": "NC(Cc1ccccc1)C(=O)Nc1ccc2c(-c3ccncc3)c(-c3ccc(F)cc3)[nH]c2n1", "note": "(racemic) [Compound 87, 6-(3′-phenyl-1′-oxo-2′-D,L-aminopropylamino)-3-(4-pyridyl)-2-(4-fluorophenyl)-7-aza-indole]", "IC50": "< 20"}, {"smiles": "CC(C)(C)OC(=O)NCCCC[C@H](NC(=O)OC(C)(C)C)C(=O)Nc1ccc2c(-c3ccncc3)c(-c3ccc(F)cc3)[nH]c2n1", "note": "[Compound 66, 6-(6′-t-butoxycarbonylamino-1′-oxo-2′-t-butoxycarbonylaminohexylamino)-3-(4-pyridyl)-2-(4-fluorophenyl)-7-aza-indole]", "IC50": "< 20"}, {"smiles": "C[S+]([O-])CC[C@H](N)C(=O)Nc1ccc2c(-c3ccncc3)c(-c3ccc(F)cc3)[nH]c2n1", "note": "(stereo partly drawn) [Compound 109, 6-(4′-methylsulfoxo-1′-oxo-2′S-aminobutylamino)-3-(4-pyridyl)-2-(4-fluorophenyl)-7-aza-indole]", "IC50": "< 20"}, {"smiles": "CN[C@@H](C(=O)Nc1ccc2c(-c3ccncc3)c(-c3ccc(F)cc3)[nH]c2n1)c1ccccc1", "note": "[Compound 121, 6-(2′-phenyl-1′-oxo-2′R-N-methylaminoethylamino)-3-(4-pyridyl)-2-(4-fluorophenyl)-7-aza-indole]", "IC50": "< 1"}, {"smiles": "Nc1ccc2c(-c3ccc(F)cc3)c(-c3ccncc3)[nH]c2n1", "note": "[Compound 18, 6-Amino-3-(4-fluorophenyl)-2-(4-pyridyl)-7-aza-indole]", "IC50": "< 20"}, {"smiles": "Nc1nc2[nH]c(-c3ccc(F)cc3)c(-c3ccncc3)c2cc1F", "note": "[Compound 28, 6-Amino-5-fluoro-3-(4-pyridyl)-2-(4-fluorophenyl)-7-aza-indole]", "IC50": "< 20"}, {"smiles": "N[C@H](C(=O)Nc1ccc2c(-c3ccncc3)c(-c3ccc(F)cc3)[nH]c2n1)c1ccccc1", "note": "[Compound 119, 6-(2′-phenyl-1′-oxo-2′S-aminoethylamino)-3-(4-pyridyl)-2-(4-fluorophenyl)-7-aza-indole]", "IC50": "< 1"}, {"smiles": "CC(C)(C)OC(=O)N[C@@H](Cc1cncn1C(=O)OC(C)(C)C)C(=O)Nc1ccc2c(-c3ccncc3)c(-c3ccc(F)cc3)[nH]c2n1", "note": "[Compound 112]", "IC50": "< 20"}, {"smiles": "CC(C)(C)OC(=O)NCCCC(=O)Nc1ccc2c(-c3ccncc3)c(-c3ccc(F)cc3)[nH]c2n1", "note": "[Compound 21, 6-(4′-t-butoxycarbonylamino-1′-oxo-butylamino)-3-(4-pyridyl)-2-(4-fluorophenyl)-7-aza-indole]", "IC50": "< 20"}, {"smiles": "N[C@H](CCc1ccccc1)C(=O)Nc1ccc2c(-c3ccncc3)c(-c3ccc(F)cc3)[nH]c2n1", "note": "[Compound 141, 6-(4′-phenyl-1′-oxo-2′-(D)-aminobutylamino)-3-(4-pyridyl)-2-(4-fluorophenyl)-7-aza-indole]", "IC50": "< 20"}, {"smiles": "C[S+]([O-])CC[C@H](NC(=O)OC(C)(C)C)C(=O)Nc1ccc2c(-c3ccncc3)c(-c3ccc(F)cc3)[nH]c2n1", "note": "(stereo partly drawn) [Compound 108, 6-(4′-methylsulfoxo-1′-oxo-2′S-t-butoxycarbonylaminobutylamino)-3-(4-pyridyl)-2-(4-fluorophenyl)-7-aza-indole]", "IC50": "< 20"}, {"smiles": "Nc1nc2[nH]c(-c3ccc(F)cc3)c(-c3ccncc3)c2cc1Br", "note": "[Compound 27, 6-Amino-5-bromo-3-(4-pyridyl)-2-(4-fluorophenyl)-7-aza-indole]", "IC50": "< 20"}, {"smiles": "N[C@@H](Cc1csc2ccccc12)C(=O)Nc1ccc2c(-c3ccncc3)c(-c3ccc(F)cc3)[nH]c2n1", "note": "[Compound 137, 6-(3′-(3-benzothienyl)-1′-oxo-2′S-aminopropylamino)-3-(4-pyridyl)-2-(4-fluorophenyl)-7-aza-indole]", "IC50": "< 20"}, {"smiles": "CC(C)(C)OC(=O)N1CCC[C@H]1C(=O)Nc1ccc2c(-c3ccncc3)c(-c3ccc(F)cc3)[nH]c2n1", "note": "[Compound 100, 6-(2′-N-t-Butoxycarbonyl-L-prolylamino)-3-(4-pyridyl)-2-(4-fluorophenyl)-7-aza-indole]", "IC50": "< 20"}, {"smiles": "NCCCC[C@H](N)C(=O)Nc1ccc2c(-c3ccncc3)c(-c3ccc(F)cc3)[nH]c2n1", "note": "[Compound 67, 6-(6′-amino-1′-oxo-2′-aminohexylamino)-3-(4-pyridyl)-2-(4-fluorophenyl)-7-aza-indole]", "IC50": "< 20"}]}]}
